Earlier results in patent publication US10149828B2, “Oxybutynin transdermal therapeutic system combination” (priority 2015, dated 2018).

Legend:
[1] = compared to placebo over six months; pivotal clinical trials
[2] = open-label, titrated to 6 mg twice daily, 26 weeks
[3] = administered orally to mice
[4] = [14C] oxybutynin, transdermal, rats

Row | Structure (SMILES) | improvement on the 30-point Mini-Mental Status Examination (MMSE) [1] | improvement on the 70-point cognitive subscale of the Alzheimer's Disease Assessment Scale (ADAS-Cog) [1] [point] | cognitive functions in PD patients with dementia [2] | motor function in PD patients with dementia [2] | crossing of the Blood-Brain-Barrier [3] | radiolabel in the brain [4]
1 | CCN(C)C(=O)Oc1cccc([C@H](C)N(C)C)c1 [rivastigmine, (S)-N-Ethyl-N-methyl-3-[1-(dimethylamino)ethyl]-phenyl carbamate] | 1-1.5 point | ~2.8 | may improve | no worsening |  | 
2 | CCN(CC)CC#CCOC(=O)C(O)(c1ccccc1)C1CCCCC1 (stereo not drawn) [oxybutynin, 4-diethylaminobut-2-ynyl 2-cyclohexyl-2-hydroxy-2-phenylethanoate] |  |  |  |  | has been shown to cross the Blood-Brain-Barrier | presence of radiolabel in the brain
